The source made the active and inactive calls. The calls are words filed in the database; no cut-off is given here.
System: HepG2
Test: Antimigratory activity against human HepG2 cells assessed as inhibition of cell migration at 100 uM measured upto 24 hrs by inverted microscopy based scratch wound healing assay
Format: functional

CC(=O)N[C@H]1[C@H](O[C@H]2[C@H](O[C@H]3[C@H](O[C@H]4CC[C@]5(C)[C@H]6C[C@@H](O)[C@@H]([C@](C)(O)CC/C=C(\C)C[C@H](O)[C@@H](O)[C@@](C)(O)CO)[C@]6(C)CC[C@H]5C4(C)C)O[C@H](CO[C@@H]4OC[C@@H](O)[C@H](O)[C@H]4O)[C@@H](O)[C@@H]3O)O[C@@H](C)[C@H](O)[C@H]2O)O[C@H](CO)[C@@H](O)[C@@H]1O
Activity: Active

C/C(=C\CC[C@@](C)(O)[C@@H]1[C@H](O)C[C@H]2[C@@]1(C)CC[C@H]1C(C)(C)[C@@H](O[C@@H]3O[C@H](CO[C@@H]4OC[C@@H](O)[C@H](O)[C@H]4O)[C@@H](O)[C@H](O)[C@H]3O[C@@H]3O[C@@H](C)[C@H](O)[C@@H](O)[C@H]3O)CC[C@]21C)C[C@@H]1OC(=O)O[C@H]1[C@](C)(O)CO[C@@H]1O[C@H](CO)[C@@H](O)[C@H](O)[C@H]1O
Activity: Active

CC(=O)N[C@H]1[C@H](O[C@H]2[C@H](O[C@H]3[C@H](O[C@H]4CC[C@]5(C)[C@H]6C[C@@H](O)[C@@H]([C@](C)(O)CC/C=C(\C)C[C@@H]7OC(=O)O[C@H]7C(C)(C)O)[C@]6(C)CC[C@H]5C4(C)C)O[C@H](CO[C@@H]4OC[C@@H](O)[C@H](O)[C@H]4O)[C@@H](O)[C@@H]3O)O[C@@H](C)[C@H](O)[C@H]2O)O[C@H](CO)[C@@H](O)[C@@H]1O
Activity: Active

CC(=O)N[C@H]1[C@H](O[C@H]2[C@H](O[C@H]3[C@H](O[C@H]4CC[C@]5(C)[C@H]6C[C@@H](O)[C@@H]([C@](C)(O)CC/C=C(\C)C[C@H](O)[C@H](O)C(C)(C)O)[C@]6(C)CC[C@H]5C4(C)C)O[C@H](CO[C@@H]4OC[C@@H](O)[C@H](O)[C@H]4O)[C@@H](O)[C@@H]3O)O[C@@H](C)[C@H](O)[C@H]2O)O[C@H](CO)[C@@H](O)[C@@H]1O
Activity: Active

CC(=O)N[C@H]1[C@H](O[C@H]2[C@H](O[C@H]3[C@H](O[C@H]4CC[C@]5(C)[C@H]6C[C@@H](O)[C@@H]([C@](C)(O)CC/C=C(\C)C[C@H](O)[C@H](O)C(C)(C)O)[C@]6(C)CC[C@H]5C4(C)C)O[C@H](CO)[C@@H](O)[C@@H]3O)O[C@@H](C)[C@H](O)[C@H]2O)O[C@H](CO)[C@@H](O)[C@@H]1O
Activity: Active

CC(=O)N[C@H]1[C@H](O[C@H]2[C@H](O[C@H]3[C@H](O[C@H]4CC[C@]5(C)[C@H]6C[C@@H](O)[C@@H]([C@](C)(O)CC/C=C(\C)C[C@@H]7OC(=O)O[C@H]7[C@](C)(O)CO)[C@]6(C)CC[C@H]5C4(C)C)O[C@H](CO[C@@H]4OC[C@@H](O)[C@H](O)[C@H]4O)[C@@H](O)[C@@H]3OC(C)=O)O[C@@H](C)[C@H](O)[C@H]2O)O[C@H](CO)[C@@H](O)[C@@H]1O
Activity: Active

CC(=O)N[C@H]1[C@H](O[C@H]2[C@H](O[C@H]3[C@H](O[C@H]4CC[C@]5(C)[C@H]6C[C@@H](O)[C@@H]([C@](C)(O)CC/C=C(\C)C[C@H](O)[C@H](O)C(C)(C)O)[C@]6(C)CC[C@H]5C4(C)C)O[C@H](CO[C@@H]4OC[C@@H](O)[C@H](O)[C@H]4O)[C@@H](O)[C@@H]3O)O[C@@H](C)[C@H](O)[C@H]2O)O[C@H](CO)[C@@H](O)[C@@H]1O[C@@H]1OC[C@H](O)[C@H](O)[C@H]1O
Activity: Active

C/C(=C\CC[C@@](C)(O)[C@@H]1[C@H](O)C[C@H]2[C@@]1(C)CC[C@H]1C(C)(C)[C@@H](O[C@@H]3O[C@H](CO[C@@H]4OC[C@@H](O)[C@H](O)[C@H]4O)[C@@H](O)[C@H](O)[C@H]3O[C@@H]3O[C@@H](C)[C@H](O)[C@@H](O)[C@H]3O)CC[C@]21C)C[C@H](O)[C@@H](O)[C@@](C)(O)CO[C@@H]1O[C@H](CO)[C@@H](O)[C@H](O)[C@H]1O
Activity: Active

CC(=O)N[C@H]1[C@H](O[C@H]2[C@H](O[C@H]3[C@H](O[C@H]4CC[C@]5(C)[C@H]6C[C@@H](O)[C@@H]([C@](C)(O)CC/C=C(\C)C[C@@H]7OC(=O)O[C@H]7[C@](C)(O)CO[C@@H]7O[C@H](CO)[C@@H](O)[C@H](O)[C@H]7O)[C@]6(C)CC[C@H]5C4(C)C)O[C@H](CO[C@@H]4OC[C@@H](O)[C@H](O)[C@H]4O)[C@@H](O)[C@@H]3O)O[C@@H](C)[C@H](O)[C@H]2O)O[C@H](CO)[C@@H](O)[C@@H]1O
Activity: Active

CC(=O)N[C@H]1[C@H](O[C@H]2[C@H](O[C@H]3[C@H](O[C@H]4CC[C@]5(C)[C@H]6C[C@@H](O)[C@@H]([C@](C)(O)CC/C=C(\C)C[C@@H]7OC(=O)O[C@H]7[C@](C)(O)CO)[C@]6(C)CC[C@H]5C4(C)C)O[C@H](CO[C@@H]4OC[C@@H](O)[C@H](O)[C@H]4O)[C@@H](OC(C)=O)[C@@H]3O)O[C@@H](C)[C@H](O)[C@H]2O)O[C@H](CO)[C@@H](O)[C@@H]1O
Activity: Active

CC(=O)N[C@H]1[C@H](O[C@H]2[C@H](O[C@H]3[C@H](O[C@H]4CC[C@]5(C)[C@H]6C[C@@H](O)[C@@H]([C@](C)(O)CC/C=C(\C)C[C@@H]7OC(=O)O[C@H]7[C@](C)(O)CO)[C@]6(C)CC[C@H]5C4(C)C)O[C@H](CO[C@@H]4OC[C@@H](O)[C@H](O)[C@H]4O)[C@@H](O)[C@@H]3O)O[C@@H](C)[C@H](O)[C@H]2O)O[C@H](CO)[C@@H](O)[C@@H]1O[C@@H]1OC[C@H](O)[C@H](O)[C@H]1O
Activity: Active

C/C(=C\CC[C@@](C)(O)[C@@H]1[C@H](O)C[C@H]2[C@@]1(C)CC[C@H]1C(C)(C)[C@@H](O[C@@H]3O[C@H](CO[C@@H]4OC[C@@H](O)[C@H](O)[C@H]4O)[C@@H](O)[C@H](O)[C@H]3O[C@@H]3O[C@@H](C)[C@H](O)[C@@H](O)[C@H]3O)CC[C@]21C)C[C@@H]1OC(=O)O[C@H]1[C@](C)(O)CO
Activity: Active

CC(=O)N[C@H]1[C@H](O[C@H]2[C@H](O[C@H]3[C@H](O[C@H]4CC[C@]5(C)[C@H]6C[C@@H](O)[C@@H]([C@](C)(O)CC/C=C(\C)C[C@H](O)[C@@H](O)[C@@](C)(O)CO)[C@]6(C)CC[C@H]5C4(C)C)O[C@H](CO[C@@H]4OC[C@@H](O)[C@H](O)[C@H]4O)[C@@H](O)[C@@H]3O)O[C@@H](C)[C@H](O)[C@H]2O)O[C@H](CO)[C@@H](O)[C@@H]1O[C@@H]1OC[C@H](O)[C@H](O)[C@H]1O
Activity: Active

C/C(=C\CC[C@@](C)(O)[C@@H]1[C@H](O)C[C@H]2[C@@]1(C)CC[C@H]1C(C)(C)[C@@H](O[C@@H]3O[C@H](CO[C@@H]4OC[C@@H](O)[C@H](O)[C@H]4O)[C@@H](O)[C@H](O)[C@H]3O[C@@H]3O[C@@H](C)[C@H](O)[C@@H](O)[C@H]3O)CC[C@]21C)C[C@H](O)[C@@H](O)[C@@](C)(O)CO
Activity: Active

CC(=O)N[C@H]1[C@H](O[C@H]2[C@H](O[C@H]3[C@H](O[C@H]4CC[C@]5(C)[C@H]6C[C@@H](O)[C@@H]([C@](C)(O)CC/C=C(\C)C[C@H](O)[C@@H](O)[C@@](C)(O)CO[C@@H]7O[C@H](CO)[C@@H](O)[C@H](O)[C@H]7O)[C@]6(C)CC[C@H]5C4(C)C)O[C@H](CO[C@@H]4OC[C@@H](O)[C@H](O)[C@H]4O)[C@@H](O)[C@@H]3O)O[C@@H](C)[C@H](O)[C@H]2O)O[C@H](CO)[C@@H](O)[C@@H]1O
Activity: Active

CC(=O)N[C@H]1[C@H](O[C@H]2[C@H](O[C@H]3[C@H](O[C@H]4CC[C@]5(C)[C@H]6C[C@@H](O)[C@@H]([C@](C)(O)CC/C=C(\C)C[C@@H]7OC(=O)O[C@H]7[C@](C)(O)CO)[C@]6(C)CC[C@H]5C4(C)C)O[C@H](CO[C@@H]4OC[C@@H](O)[C@H](O)[C@H]4O)[C@@H](O)[C@@H]3O)O[C@@H](C)[C@H](O)[C@H]2O)O[C@H](CO)[C@@H](O)[C@@H]1O
Activity: Active
